Laboratory results taken from PubChem BioAssay (NCI).
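Exposure lasted 48 hours, with cells grown in 96-well plates and compounds tested at five concentrations. GI50 is the concentration that inhibits growth by half. TGI is the concentration that stops growth completely.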

Columns and labels:
Experiment in all cases: NCI tumour cell line growth inhibition, 48 h
NCI-H522 lung = test system: NCI-H522 lung
NCI-H23 lung = test system: NCI-H23 lung
CCRF-CEM leukemia = test system: CCRF-CEM leukemia
RPMI-8226 leukemia = test system: RPMI-8226 leukemia
MDA-MB-435 = test system: MDA-MB-435
DU-145 prostate = test system: DU-145 prostate
A498 renal = test system: A498 renal
SK-MEL-5 melanoma = test system: SK-MEL-5 melanoma
IGROV1 ovarian = test system: IGROV1 ovarian
HOP-62 NSCLC = test system: HOP-62 NSCLC
RXF 393 renal = test system: RXF 393 renal
PC-3 prostate = test system: PC-3 prostate
SF-295 CNS = test system: SF-295 CNS
SK-MEL-2 melanoma = test system: SK-MEL-2 melanoma
MDA-N = test system: MDA-N
UO-31 renal = test system: UO-31 renal
OVCAR-4 ovarian = test system: OVCAR-4 ovarian
BT-549 breast = test system: BT-549 breast
MALME-3M melanoma = test system: MALME-3M melanoma
NCI/ADR-RES ovarian = test system: NCI/ADR-RES ovarian
OVCAR-5 ovarian = test system: OVCAR-5 ovarian
COLO 205 colon = test system: COLO 205 colon
UACC-257 melanoma = test system: UACC-257 melanoma
LOX IMVI melanoma = test system: LOX IMVI melanoma
K-562 leukemia = test system: K-562 leukemia
SNB-75 CNS = test system: SNB-75 CNS
SK-MEL-28 melanoma = test system: SK-MEL-28 melanoma
OVCAR-3 ovarian = test system: OVCAR-3 ovarian
MOLT-4 leukemia = test system: MOLT-4 leukemia
OVCAR-8 ovarian = test system: OVCAR-8 ovarian
CAKI-1 renal = test system: CAKI-1 renal
T-47D breast = test system: T-47D breast
HOP-92 NSCLC = test system: HOP-92 NSCLC
HCT-15 colon = test system: HCT-15 colon
SN12C renal = test system: SN12C renal
HCT-116 colon = test system: HCT-116 colon
NCI-H460 lung = test system: NCI-H460 lung
ACHN renal = test system: ACHN renal
U251 CNS = test system: U251 CNS
A549 NSCLC = test system: A549 NSCLC
HCC-2998 colon = test system: HCC-2998 colon
UACC-62 melanoma = test system: UACC-62 melanoma
SNB-19 CNS = test system: SNB-19 CNS
TK-10 renal = test system: TK-10 renal
KM12 colon = test system: KM12 colon
SK-OV-3 ovarian = test system: SK-OV-3 ovarian
HT29 colon = test system: HT29 colon
SF-268 CNS = test system: SF-268 CNS
MDA-MB-231 breast = test system: MDA-MB-231 breast
SF-539 CNS = test system: SF-539 CNS
MCF7 breast = test system: MCF7 breast
SW-620 colon = test system: SW-620 colon
M14 melanoma = test system: M14 melanoma
HS 578T breast = test system: HS 578T breast
EKVX NSCLC = test system: EKVX NSCLC
NCI-H226 lung = test system: NCI-H226 lung

Question: Which results are given for C[C@H]1CCC/C=C/[C@@H]2C[C@H](O)C[C@H]2[C@H](O)[C@@H](S(=O)CCN)CC(=O)O1 (stereo partly specified)?
Answer: GI50 (NCI-H522 lung): 98.6 nM; TGI (NCI-H522 lung): 926 nM; GI50 (NCI-H23 lung): 44 nM; TGI (NCI-H23 lung): 1740 nM; GI50 (CCRF-CEM leukemia): 72.9 nM; GI50 (RPMI-8226 leukemia): 294 nM; TGI (RPMI-8226 leukemia): 2710 nM; GI50 (MDA-MB-435): 51.3 nM; TGI (MDA-MB-435): > 92800 nM; GI50 (DU-145 prostate): 163 nM; TGI (DU-145 prostate): 552 nM; GI50 (A498 renal): 32.2 nM; TGI (A498 renal): 126 nM; GI50 (SK-MEL-5 melanoma): 15 nM; TGI (SK-MEL-5 melanoma): 29.5 nM; GI50 (IGROV1 ovarian): 166 nM; GI50 (HOP-62 NSCLC): 130 nM; TGI (HOP-62 NSCLC): > 58900 nM; GI50 (RXF 393 renal): < 14.1 nM; TGI (RXF 393 renal): 45.6 nM; GI50 (PC-3 prostate): 44.2 nM; GI50 (SF-295 CNS): 117 nM; TGI (SF-295 CNS): > 100000 nM; GI50 (SK-MEL-2 melanoma): 111 nM; GI50 (MDA-N): 50.5 nM; TGI (MDA-N): 5500 nM; GI50 (UO-31 renal): 26.9 nM; TGI (UO-31 renal): 446 nM; GI50 (OVCAR-4 ovarian): < 27.3 nM; GI50 (BT-549 breast): 37.7 nM; TGI (BT-549 breast): > 100000 nM; GI50 (MALME-3M melanoma): < 13.8 nM; TGI (MALME-3M melanoma): 382 nM; GI50 (NCI/ADR-RES ovarian): 19.6 nM; TGI (NCI/ADR-RES ovarian): 137 nM; GI50 (OVCAR-5 ovarian): 47.9 nM; GI50 (COLO 205 colon): < 15.6 nM; TGI (COLO 205 colon): 43.6 nM; GI50 (UACC-257 melanoma): < 23.4 nM; TGI (UACC-257 melanoma): > 100000 nM; GI50 (LOX IMVI melanoma): 31 nM; TGI (LOX IMVI melanoma): 101 nM; GI50 (K-562 leukemia): 132 nM; TGI (K-562 leukemia): > 100000 nM; GI50 (SNB-75 CNS): < 23.1 nM; TGI (SNB-75 CNS): > 25100 nM; GI50 (SK-MEL-28 melanoma): 47.5 nM; TGI (SK-MEL-28 melanoma): > 100000 nM; GI50 (OVCAR-3 ovarian): 49.5 nM; GI50 (MOLT-4 leukemia): 94.7 nM; GI50 (OVCAR-8 ovarian): < 18.1 nM; TGI (OVCAR-8 ovarian): 154 nM; GI50 (CAKI-1 renal): 97.9 nM; GI50 (T-47D breast): 116 nM; TGI (T-47D breast): 544 nM; GI50 (HOP-92 NSCLC): 274 nM; TGI (HOP-92 NSCLC): > 100000 nM; GI50 (HCT-15 colon): 280 nM; TGI (HCT-15 colon): 10800 nM; GI50 (SN12C renal): 85 nM; TGI (SN12C renal): 472 nM; GI50 (HCT-116 colon): 56.9 nM; TGI (HCT-116 colon): 169 nM; GI50 (NCI-H460 lung): 11.9 nM; TGI (NCI-H460 lung): 74.3 nM; GI50 (ACHN renal): 121 nM; TGI (ACHN renal): 2840 nM; GI50 (U251 CNS): 53.8 nM; TGI (U251 CNS): > 100000 nM; GI50 (A549 NSCLC): 40.2 nM; TGI (A549 NSCLC): > 100000 nM; GI50 (HCC-2998 colon): 252 nM; TGI (HCC-2998 colon): 22300 nM; GI50 (UACC-62 melanoma): 19.7 nM; TGI (UACC-62 melanoma): > 82000 nM; GI50 (SNB-19 CNS): 210 nM; TGI (SNB-19 CNS): > 100000 nM; GI50 (TK-10 renal): 85.1 nM; TGI (TK-10 renal): 4190 nM; GI50 (KM12 colon): < 13.9 nM; GI50 (SK-OV-3 ovarian): 24.5 nM; GI50 (HT29 colon): < 15.8 nM; TGI (HT29 colon): 37.8 nM; TGI (SF-268 CNS): > 100000 nM; GI50 (MDA-MB-231 breast): 23.4 nM; TGI (MDA-MB-231 breast): 61.3 nM; GI50 (SF-539 CNS): < 17.6 nM; GI50 (MCF7 breast): 31.6 nM; GI50 (SW-620 colon): 57.6 nM; GI50 (M14 melanoma): 29.4 nM; GI50 (HS 578T breast): 207 nM; TGI (HS 578T breast): > 100000 nM; GI50 (EKVX NSCLC): 89.1 nM; TGI (EKVX NSCLC): > 100000 nM; GI50 (NCI-H226 lung): 41 nM; TGI (NCI-H226 lung): 199 nM
